Values quoted from earlier work in patent US20240325292A1, “COMPOSITION AND METHODS OF TREATMENT USING TRANSDERMAL SUPPLEMENTATION” (Xygenyx Inc., priority 2023, published 2024).

Columns and labels:
[1] = as penetration enhancer
[2] = test system: wide dynamic range neurons in the ventroposterolateral nucleus of the thalamus; settings: in vivo
[3] = not given; remark: listed apart in the source
[4] = as compared to α-tocopherol = 1.0
rheumatoid arthritis = settings: arthritic subjects
[5] = dietary intake in equal portions
[6] = test system: markers of inflammation in the blood; settings: individuals with metabolic syndrome
[7] = in vivo
[8] = 400-500 IU, in combination with 10-20 mg β-carotene and 400-500 mg vitamin C

For CC(C)[C@@H]1CC[C@@H](C)C[C@H]1O [Menthol], the “increase of transdermal drug uptake, factor” value [1] is listed as ≥ 10.
In the case of CCCCCc1cc(O)c2c(c1)OC(C)(C)C1CCC(C)=CC21 (stereo not drawn) [THC, Δ-9-tetrahydrocannabinol], the “potency in mediating pain relative to morphine” value [2] is given as “ten times more powerful than morphine”.
In the case of CC12CCC(CC1)C(C)(C)O2 [eucalyptol, 1,8-epoxy-p-menthane], the “increase of transdermal drug uptake, factor” value [1] is given as “more than 10”.
In the case of C/C(=C\CO)CCC[C@H](C)CCC[C@H](C)CCCC(C)C [phytol, Phytol], the solubility in water is listed as “nearly insoluble in water”.
In the case of Cc1c(C)c2c(c(C)c1O)CC[C@@](C)(CCC[C@H](C)CCC[C@H](C)CCCC(C)C)O2 [α-tocopherol], the “progression of age-related macular degeneration” value [3, 8] is given as “dramatically reduce the progression”, the “reduction in the development of age-related cataracts” value [3, 8] is given as 23% and the “functional health of sperm” value ([3]; 800-900 IU/day) is given as “improve functional health of sperm”. The “blood plasma concentration of F2-isoprostane” value ([3]; 1600-3200 IU/day) was “significantly lower”, the “reduction of risk of coronary disease” value ([3]; doses up to 400 IU/day) was “up to 34%” and the “reduction of risk of developing neurodegenerative diseases (Alzheimer's Syndrome or dementia)” value ([3]; doses up to 400 IU/day, controlled trials) was ≤ 24%. The relative biological activity [4] was 1.0.
In the case of C=C1CC/C=C(\C)CC[C@@H]2[C@@H]1CC2(C)C [β-caryophyllene], the “joint and lymph node swelling, leukocyte number” value (rheumatoid arthritis) is given as “reduced swelling of joints and lymph nodes as well as the number of circulating and articular leukocytes”.
For Cc1cc(O)c(C)c2c1O[C@](C)(CCC[C@H](C)CCC[C@H](C)CCCC(C)C)CC2 [β-tocopherol], the relative biological activity [4] is listed as 0.5.
For Cc1c(O)cc2c(c1C)O[C@](C)(CCC[C@H](C)CCC[C@H](C)CCCC(C)C)CC2 [γ-tocopherol], the “concentration in vivo relative to α-tocopherol” value [5] is given as “roughly 10%” and the relative biological activity [4] is given as 0.1.
In the case of Cc1cc(O)cc2c1O[C@](C)(CCC[C@H](C)CCC[C@H](C)CCCC(C)C)CC2 [δ-tocopherol], the “markers of inflammation in the blood” value [6] is given as “reduced markers of inflammation” and the relative biological activity [4] is given as 0.03.
In the case of “HGH: hormone comprising a peptide chain that is synthesized in the pituitary gland”, the biological half-life [7] is given as 10-20 minutes.
